Source: US20220251611A1, “BENZALDEHYDE PRODUCTION METHOD” (AJINOMOTO CO., INC., priority 2019, published 2022)
Like-named read-outs stand apart in the source and are kept apart here.

Legend:
[1] = test system: HmaS At-His purified enzyme (HMAS); conditions: for Generated amount of mandelate: 10 mM sodium phenylpyruvate, 25° C., 15 minutes, no hydrogen peroxide taken as 100%
Procedure: Cells were collected from 10 mL of the HmaS At culture broth obtained in Example 2 by centrifugation, suspended in 2 mL of xTractor Buffer (Takara Bio), and allowed to stand at room temperature for 20 minutes, to disrupt the cells. The cell residue was removed from the disruptant by centrifugation, and the obtained supernatant was used as a soluble fraction. The soluble fraction was applied to a His-tag protein purification column HisTALON Superflow Cartridges (Takara Bio, CV=1 mL) equilibrated with a buffer containing 20 mM Tris-HCl (pH 8.0), 300 mM NaCl, and 10 mM Imidazole, to adsorb proteins on the carrier. Proteins not adsorbed on the carrier (non-adsorbed proteins) were washed off with a buffer containing 20 mM Tris-HCl (pH 8.0), 300 mM NaCl, and 10 mM Imidazole, and then a buffer containing 20 mM Tris-HCl (pH 8.0), 300 mM NaCl, and 150 mM Imidazole was flowed at 1.5 mL/min, to elute the adsorbed proteins. The eluted fractions were collected and concentrated using Amicon Ultra-15 30 k (Millipore). The concentrate was diluted with 20 mM of Tris-HCl (pH 7.6), and hereinafter used as a HmaS At-His purified enzyme.
A reaction mixture (0.2 mL) containing 10 mM of sodium phenylpyruvate, 0.01 mM of iron sulfate, 10 mM of trisodium citrate, 10 mM of sodium ascorbate, 100 mM of Tris-HCl (pH 7.0), 0.02 mg/mL of the HmaS At-His purified enzyme, and 0 to 1 mM of hydrogen peroxide was put into a 1.5 mL-volume tube, and a reaction was carried out at 25° C. Similarly, a reaction without addition of HmaS At-His was carried out. After 15 minutes, a 0.05 mL aliquot of the reaction mixture was mixed with 0.2 mL of a reaction stop solution (1% phosphoric acid), and subjected to HPLC analysis. HPLC analysis was carried out in the same manner as Example 5, and mandelate enzymatically-generated was quantified. The amount of hydrogen peroxide added and the generated amount of mandelate are shown in Table 3, wherein the generated amount of mandelate in the case of not adding hydrogen peroxide was taken as 100%.

[2] = test system: benzaldehyde generation from L-Phe by AAD, HmaS At, Md1B and Md1C concentrates; experiment: Synthesis of benzaldehyde from L-Phe with addition of culture broth of catalase-expressing strain; assay type: biochemical, E. coli; conditions: 50 mM L-Phe, 0.1 mL of 5-fold Cat concentrate in 1 mL reaction mixture, 25° C., 20 hours, then Md1C concentrate 4 hours; HPLC; Ctrl 9.1
Procedure: A 10 mL aliquot of the AAD culture broth obtained in Example 1 was centrifuged, 8 mL of the supernatant was removed, and the cells were suspended in the remaining culture supernatant, to obtain a 5-fold concentrated culture broth. This was used for the following reactions as an AAD concentrate. Similarly, 5-fold concentrates were prepared from the HmaS At culture broths, Md1B culture broth, and Md1C culture broth obtained in Examples 2 to 4, and used for the following reactions as a HmaS At concentrates, Md1B concentrate, and Md1C concentrate. A 1 mL aliquot of the Cat 1 culture broth obtained in Example 6 was centrifuged, 0.8 mL of the supernatant was removed, and the cells were suspended in the remaining culture supernatant, to obtain a 5-fold concentrated culture broth. This was used for the following reactions as a Cat 1 concentrate. Similarly, 5-fold concentrates were prepared from the Cat 2 to 15 culture broths and the Ctrl culture broth, and used for the following reactions as Cat 2 to 15 concentrates and a Ctrl concentrate.
After 20 hours, the reaction mixture was centrifuged, a 0.49 mL aliquot of the supernatant was mixed with 0.01 mL of the Md1C concentrate, and the resultant mixture was put into a test tube and shaken at 25° C. […]

Molecule | Generated amount of mandelate ([1]; 0.001 mM hydrogen peroxide added) [%] | Generated amount of mandelate ([1]; 0.01 mM hydrogen peroxide added) [%] | Generated amount of mandelate ([1]; 0.1 mM hydrogen peroxide added) [%] | Generated amount of mandelate ([1]; 1 mM hydrogen peroxide added) [%] | Effect on HMAS activity ([1]; 0.01 to 1 mM of hydrogen peroxide added) | Benzaldehyde [2] [mM]
OO [Hydrogen peroxide, hydrogen peroxide] | 103 | 94 | 39 | 1 | inhibits HMAS activity | 
Cat 2: Cat HPII derived from E. coli (SEQ ID NO: 6), concentrated culture broth of expressing strain |  |  |  |  |  | 10.7
